# Measurements reported in ChEMBL document CHEMBL3758155, “Development of certain new 2-substituted-quinazolin-4-yl-aminobenzenesulfonamide as potential antitumor agents” (Eur J Med Chem, 2016).
# Calls of active or inactive are those of the source. The rule behind the calls is not given here.
# Assays:
# [1] = tested on: HT-29; experiment: Inhibition of carbonic anhydrase 9 expression in human HT-29 cells after 18 hrs by Western blot analysis; type: functional, cell-based
# [2] = tested on: HT-29; experiment: Antiproliferative activity against human HT-29 cells assessed as cell viability at 10 uM after 24 hrs by trypan blue assay; type: functional; conditions: HT-29, 24 h, read-out: Activity
# [3] = tested on: HT-29; experiment: Antiproliferative activity against human HT-29 cells assessed as inhibition of cell viability after 24 hrs by trypan blue assay; type: functional, cell-based
# [4] = tested on: HT-29; experiment: Inhibition of carbonic anhydrase 12 expression in human HT-29 cells after 18 hrs by Western blot analysis; type: functional, cell-based
# [5] = tested on: HT-29; experiment: Inhibition of carbonic anhydrase 1 expression in human HT-29 cells at 2.5 to 10 uM after 18 hrs by Western blot analysis; type: functional, cell-based
# [6] = tested on: SW-620; experiment: Antiproliferative activity against human SW620 cells assessed as inhibition of cell viability at 5 to 10 uM after 24 hrs by trypan blue assay; type: functional, cell-based
# [7] = tested on: HT-29; experiment: Antiproliferative activity against human HT-29 cells assessed as inhibition of cell viability at 10 uM by trypan blue assay; type: functional, cell-based; conditions: TDE = time-dependent effect
# [8] = tested on: HT-29; experiment: Inhibition of carbonic anhydrase 2 expression in human HT-29 cells at 2.5 to 10 uM after 18 hrs by Western blot analysis; type: functional, cell-based
smiles,measurement,setting,value
NS(=O)(=O)c1ccc(Nc2nc(-c3ccc(Cl)cc3)nc3ccccc23)cc1,inhibition,[1],Dose-dependent effect
same,viability at 10 µM,[2],12%
same,inhibition,[3],Dose-dependent effect
same,IC50,"[3]; HT-29, 24 h",5.45 µM
same,inhibition,[4],Dose-dependent effect
same,inhibition,[5],inactive
same,inhibition,[6],Active
same,inhibition,[7],tde
same,inhibition,[8],inactive
